According to patent publication US20220348868A1, “METHOD OF PRODUCING SKIN-DERIVED PRECURSOR CELLS” (KAO CORPORATION, priority 2014, published 2022):

System: human iPS cell-derived neural crest stem cells
Assay: Induction of differentiation from human iPS cell-derived neural crest stem cells to SKPs, observed by microphotograph
Assay type: cell-based
Conditions: CHIR99021 added at 0.5 micromolar to 5 micromolars (tested 0, 0.1, 0.5, 3, 5 micromolar)
Procedure: Based on the method described in Nature protocols, 5, pp. 688-701 (2010) or Cell reports, 3, pp. 1140-1152 (2013), the iPS cells subjected to the passage culture in Test Example 1 were cultured in a culture medium prepared by adding noggin (catalog number: 6057-NG-100/CF, 500 ng/mL, manufactured by R&D Systems, Inc.) and/or SB431542 (catalog number: 1614, 10 micromolars, manufactured by TOCRIS Bioscience) to a hES medium (−) bFGF for 5 days to 2 weeks to induce differentiation from human iPS cells to neural crest stem cells. The above-described iPS cell-derived neural crest stem cells were cultured in a D-MEM/F12 medium (catalog number: 10565-018, manufactured by Life Technologies Corporation) containing B-27 supplement (catalog number: 17504-044, 2% by mass, manufactured by life Technologies Corporation), EGF (catalog number: 336-EG-200, 20 ng/mL, manufactured by R&D Systems, Inc.), bFGF (catalog number: 064-04541, 40 ng/mL, manufactured by Wako Pure Chemical Industries, Ltd.), penicillin/streptomycin (catalog number: 15140-122, 50U, 50 microgram/mL, manufactured by Life Technologies Corporation) and 0 micromolar to 5 micromolars of CHIR99021 (catalog number 13122, manufactured by Cayman Chemical Company). […]

Cc1c[nH]c(-c2cnc(NCCNc3ccc(C#N)cn3)nc2-c2ccc(Cl)cc2Cl)n1 [CHIR99021]
amount of cells differentiated to SKPs, after passage culture (P1) (after selective passage culture of SKPs, FIG. 2, P1): a larger amount of the cells differentiated to SKPs grew
amount of cells differentiated to SKPs, before passage culture (P0) (culture 3 to 5 days, FIG. 2, P0): a larger amount of the cells differentiated to SKPs was migrated in a peripheral area of the colony
